What was measured:
Experiment in all cases: NCI60 single-dose SRB assay
Format in all cases: cell-based, human
786-0 = conditions: 786-0, Renal Cancer, 10 μM
Method: (§1) Compounds 19 and 20 were supplied to National Cancer Institute (USA), for sulforhodamine B (SRB) assay and anticancer screening. Single-dose (10 µM) assay results for compounds 19 and 20 were provided as a mean of percent growth (% G) and growth inhibition (% GI) against 60 cell lines of nine types of cancers and are tabulated in Table 4. […] Both the compounds 19 and 20 were also found active on UO-31 renal cancer cell line with % GI of 21.18 and 29.95, respectively.
(§2) Compounds 19 and 20 were supplied to National Cancer Institute (Bethesda, Maryland, USA), for in vitro sulforhodamine B (SRB) assay, anticancer screening on 60 cell lines of cancers of leukemia, melanoma, and tumors of the kidney, brain, breast, lung, colon, ovary, and prostate, as per their standard protocol. One dose anticancer results (NCI, USA) of compounds 19 and 20 are provided in the Supplementary Materials.

A549/ATCC = conditions: Non-Small Cell Lung Cancer, 10 μM
Method: as §1, §2

CAKI-1 = conditions: CAKI-1, Renal Cancer, 10 μM
Method: as §1, §2

COLO 205 = conditions: COLO 205, Colon Cancer, 10 μM
Method: as §1, §2

DU-145 = conditions: DU-145, Prostate Cancer, 10 μM
Method: as §1, §2

HCT-116 = conditions: HCT-116, Colon Cancer, 10 μM
Method: as §1, §2

HCT-15 = conditions: HCT-15, Colon Cancer, 10 μM
Method: as §1, §2

HOP-62 = conditions: HOP-62, Non-Small Cell Lung Cancer, 10 μM
Method: as §1, §2

HOP-92 = conditions: HOP-92, Non-Small Cell Lung Cancer, 10 μM
Method: as §1, §2

HS 578T = conditions: Breast Cancer, 10 μM
Method: as §1, §2

HT29 = conditions: HT29, Colon Cancer, 10 μM
Method: as §1, §2

IGROV1 = conditions: IGROV1, Ovarian Cancer, 10 μM
Method: as §1, §2

K-562 = conditions: K-562, Leukemia, 10 μM
Method: as §1, §2

KM12 = conditions: KM12, Colon Cancer, 10 μM
Method: as §1, §2

LOX IMVI = conditions: Melanoma, 10 μM
Method: as §1, §2

MDA-MB-231/ATCC = conditions: Breast Cancer, 10 μM
Method: as §1, §2

MDA-MB-435 = conditions: MDA-MB-435, Melanoma, 10 μM
Method: as §1, §2

MDA-MB-468 = conditions: MDA-MB-468, Breast Cancer, 10 μM
Method: as §1, §2

NCI-H23 = conditions: NCI-H23, Non-Small Cell Lung Cancer, 10 μM
Method: as §1, §2

OVCAR-3 = conditions: OVCAR-3, Ovarian Cancer, 10 μM
Method: as §1, §2

OVCAR-8 = conditions: OVCAR-8, Ovarian Cancer, 10 μM
Method: as §1, §2

SF-295 = conditions: SF-295, CNS Cancer, 10 μM
Method: as §1, §2

SK-MEL-28 = conditions: SK-MEL-28, Melanoma, 10 μM
Method: as §1, §2

SK-MEL-5 = conditions: SK-MEL-5, Melanoma, 10 μM
Method: as §1, §2

SN12C = conditions: Renal Cancer, 10 μM
Method: as §1, §2

SNB-19 = conditions: SNB-19, CNS Cancer, 10 μM
Method: as §1, §2

T-47D = conditions: Breast Cancer, 10 μM
Method: as §1, §2

U251 = conditions: U251, CNS Cancer, 10 μM
Method: as §1, §2

UACC-257 = conditions: UACC-257, Melanoma, 10 μM
Method: as §1, §2

UACC-62 = conditions: UACC-62, Melanoma, 10 μM
Method: as §1, §2

UO-31 = conditions: UO-31, Renal Cancer, 10 μM
Method: as §1, §2

NS(=O)(=O)c1ccc(N2CC(c3nc4ccccc4o3)CC2=O)cc1 (stereo not shown) [Compound 20, 4-(4-(Benzo[d]oxazol-2-yl)-2-oxopyrrolidin-1-yl)benzenesulfonamide]
% G (786-0): 98.99% | % GI (786-0): 1.01% | % G (A549/ATCC): 95.28% | % GI (A549/ATCC): 4.72% | % G (CAKI-1): 92.35% | % GI (CAKI-1): 7.65% | % G (COLO 205): 104.05% | % GI (COLO 205): −4.05% | % G (DU-145): 111.62% | % GI (DU-145): −11.62% | % G (HCT-116): 95.78% | % G (HCT-15): 101.16% | % GI (HCT-15): −1.16% | % G (HOP-62): 81.97% | % GI (HOP-62): 18.03% | % G (HOP-92): 77.78% | % GI (HOP-92): 22.22% | % G (HS 578T): 104.19% | % GI (HS 578T): −4.19% | % G (HT29): 103.23% | % GI (HT29): −3.23% | % G (IGROV1): 101.63% | % GI (IGROV1): −1.63% | % G (K-562): 98.83% | % GI (K-562): 1.17% | % G (KM12): 101.16% | % GI (KM12): −1.16% | % G (LOX IMVI): 92.99% | % GI (LOX IMVI): 7.01% | % G (MDA-MB-231/ATCC): 80.11% | % GI (MDA-MB-231/ATCC): 19.89% | % G (MDA-MB-435): 100.55% | % GI (MDA-MB-435): −0.55% | % G (MDA-MB-468): 100.34% | % GI (MDA-MB-468): −0.34% | % G (NCI-H23): 92.19% | % GI (NCI-H23): 7.81% | % G (OVCAR-3): 98.53% | % GI (OVCAR-3): 1.47% | % G (OVCAR-8): 97.49% | % GI (OVCAR-8): 2.51% | % G (SF-295): 93.71% | % GI (SF-295): 6.29% | % G (SK-MEL-28): 101.79% | % GI (SK-MEL-28): −1.79% | % G (SK-MEL-5): 98.82% | % G (SN12C): 95.50% | % GI (SN12C): 4.50% | % G (SNB-19): 97.02% | % GI (SNB-19): 2.98% | % G (T-47D): 83.24% | % G (U251): 95.21% | % GI (U251): 4.79% | % G (UACC-257): 110.78% | % GI (UACC-257): −10.78% | % G (UACC-62): 92.78% | % GI (UACC-62): 7.22% | % G (UO-31): 70.05% | % GI (UO-31): 29.95%

O=C1CC(c2nc3ccccc3o2)CN1c1ccc([N+](=O)[O-])cc1 (stereo not shown) [Compound 19, 4-(Benzo[d]oxazol-2-yl)-1-(4-nitrophenyl)pyrrolidin-2-one]
% G (786-0): 104.06% | % GI (786-0): −4.06% | % G (A549/ATCC): 100.60% | % GI (A549/ATCC): −0.60% | % G (CAKI-1): 97.19% | % GI (CAKI-1): 2.81% | % G (COLO 205): 103.79% | % GI (COLO 205): −3.79% | % G (DU-145): 110.09% | % GI (DU-145): −10.09% | % G (HCT-116): 102.14% | % GI (HCT-116): −2.14% | % G (HCT-15): 98.10% | % GI (HCT-15): 1.9% | % G (HOP-62): 85.04% | % GI (HOP-62): 14.96% | % G (HOP-92): 104.72% | % GI (HOP-92): −4.72% | % G (HS 578T): 101.81% | % GI (HS 578T): −1.81% | % G (HT29): 99.25% | % GI (HT29): 0.75% | % G (IGROV1): 104.14% | % GI (IGROV1): −4.14% | % G (K-562): 98.41% | % GI (K-562): 1.59% | % G (KM12): 105.43% | % GI (KM12): −5.43% | % G (LOX IMVI): 89.06% | % GI (LOX IMVI): 10.94% | % G (MDA-MB-231/ATCC): 88.41% | % GI (MDA-MB-231/ATCC): 11.59% | % G (MDA-MB-435): 95.05% | % GI (MDA-MB-435): 4.95% | % G (MDA-MB-468): 98.03% | % GI (MDA-MB-468): 1.97% | % G (NCI-H23): 93.07% | % GI (NCI-H23): 6.93% | % G (OVCAR-3): 98.56% | % GI (OVCAR-3): 1.44% | % G (OVCAR-8): 101.95% | % GI (OVCAR-8): −1.95% | % G (SF-295): 98.21% | % GI (SF-295): 1.79% | % G (SK-MEL-28): 111.25% | % GI (SK-MEL-28): −11.25% | % G (SK-MEL-5): 98.72% | % GI (SK-MEL-5): 1.28% | % G (SN12C): 97.21% | % GI (SN12C): 2.79% | % G (SNB-19): 99.29% | % GI (SNB-19): 0.71% | % G (T-47D): 80.01% | % GI (T-47D): 19.99% | % G (U251): 100.97% | % GI (U251): −0.97% | % G (UACC-257): 106.92% | % GI (UACC-257): −6.92% | % G (UACC-62): 97.59% | % GI (UACC-62): 2.41% | % G (UO-31): 78.82% | % GI (UO-31): 21.18%

— paper PMC8074287, “Analgesic and Anticancer Activity of Benzoxazole Clubbed 2-Pyrrolidinones as Novel Inhibitors of Monoacylglycerol Lipase” (Molecules, 2021)
